The test system of the data set is MecA mRNA. Description: PNA FISH of MecA mRNA in permeabilized S. aureus (Examples 1-3). Format: cell-based.

In the case of “GCTATCGTGTCACAA (all peptide nucleic acid (PNA); fluorescein label, position not given here; listed as Staphylococcus aureus) [Probe 2, Flu-labeled PNA probe, methicillin-resistance]”, the “fluorescent staining of bacteria (FITC filter)” value (MRSA 43300, oxacillin-induced, FIG. 1 Slides B-D, Probes 1-5 794 nM combined, Probe 2 750 nM, Probe 6 750 nM) is “Green fluorescent bacteria were observed”. Also, the “fluorescent staining of bacteria (FITC filter), competition control” value (MRSA 43300, Probe 2 300 nM in the presence of 16.6-fold excess (5000 nM) of biotin labeled Probe 7, FIG. 1 Slide E) is given as “No signal was observed”.
